For experiment [1], the system named is MDA-MB-231 Cells. Briefly: MTS assay, growth arrest by retinoids +/-Rhodiola. It is filed as cell-based, human. The settings on record: for chemosensitivity (MTS assay): retinoid with Rhodiola, data not shown. The protocol:
Rhodiola crenulata extracts were administered to MDA-MB-231 cells in the presence or absence of either 1 μM or 10 μM all trans retinoic acid (ATRA), and cell viability/cytotoxicity was monitored using the MTS assay, as described above, and monitored for absorbance at 490 nm as indicative of chemosensitivity/resistance to the ATRA administered.

In experiment [2] the test system is MDA-MB-231 Cells. Briefly: Death time course with Tamoxifen, Rhodiola, or both. It is filed as cell-based, human. The source says:
FIG. 8 is a graph showing a Death Time Course of MDA-MB-231 Cells treated with Tamoxifen, Rhodiola, or Tamoxifen plus Rhodiola.
FIG. 8 is similar to FIG. 7, but this experiment involved a time course of MDA-MB-231 Cells treated with Tamoxifen or Rhodiola alone, or Tamoxifen and Rhodiola together.

The target of experiment [3] is T1, telomerase activity in MDA-MB-231 breast cancer cells (Homo sapiens, UniProt O14746).
T1 construct: telomerase activity in human MDA-MB-231 breast cancer cells; endogenous in cells; host or cells: MDA-MB-231
Briefly: Telomerase activity (qPCR). It is filed as cell-based. The settings on record: Rhodiola crenulata 100 μg/mL, tamoxifen 10 μM. The protocol:
FIGS. 16 and 17 show the effect of Rhodiola crenulata (100 μg/mL) and tamoxifen (10 μM) on telomerase activity in human MDA-MB-231 breast cancer cells at 24 hr and 72 hr, respectively.
The breast cancer cell lines MDA-MB-231, V14, 76N tert (an immortalized epithelial breast cancer cell line), and 76N p53 239 (immortalized by presence of a dominant negative p53 gene) were treated as indicated above for 24 hours at 100 μg/mL Rhodiola crenulata.

T1 sequence (O14746 whole entry): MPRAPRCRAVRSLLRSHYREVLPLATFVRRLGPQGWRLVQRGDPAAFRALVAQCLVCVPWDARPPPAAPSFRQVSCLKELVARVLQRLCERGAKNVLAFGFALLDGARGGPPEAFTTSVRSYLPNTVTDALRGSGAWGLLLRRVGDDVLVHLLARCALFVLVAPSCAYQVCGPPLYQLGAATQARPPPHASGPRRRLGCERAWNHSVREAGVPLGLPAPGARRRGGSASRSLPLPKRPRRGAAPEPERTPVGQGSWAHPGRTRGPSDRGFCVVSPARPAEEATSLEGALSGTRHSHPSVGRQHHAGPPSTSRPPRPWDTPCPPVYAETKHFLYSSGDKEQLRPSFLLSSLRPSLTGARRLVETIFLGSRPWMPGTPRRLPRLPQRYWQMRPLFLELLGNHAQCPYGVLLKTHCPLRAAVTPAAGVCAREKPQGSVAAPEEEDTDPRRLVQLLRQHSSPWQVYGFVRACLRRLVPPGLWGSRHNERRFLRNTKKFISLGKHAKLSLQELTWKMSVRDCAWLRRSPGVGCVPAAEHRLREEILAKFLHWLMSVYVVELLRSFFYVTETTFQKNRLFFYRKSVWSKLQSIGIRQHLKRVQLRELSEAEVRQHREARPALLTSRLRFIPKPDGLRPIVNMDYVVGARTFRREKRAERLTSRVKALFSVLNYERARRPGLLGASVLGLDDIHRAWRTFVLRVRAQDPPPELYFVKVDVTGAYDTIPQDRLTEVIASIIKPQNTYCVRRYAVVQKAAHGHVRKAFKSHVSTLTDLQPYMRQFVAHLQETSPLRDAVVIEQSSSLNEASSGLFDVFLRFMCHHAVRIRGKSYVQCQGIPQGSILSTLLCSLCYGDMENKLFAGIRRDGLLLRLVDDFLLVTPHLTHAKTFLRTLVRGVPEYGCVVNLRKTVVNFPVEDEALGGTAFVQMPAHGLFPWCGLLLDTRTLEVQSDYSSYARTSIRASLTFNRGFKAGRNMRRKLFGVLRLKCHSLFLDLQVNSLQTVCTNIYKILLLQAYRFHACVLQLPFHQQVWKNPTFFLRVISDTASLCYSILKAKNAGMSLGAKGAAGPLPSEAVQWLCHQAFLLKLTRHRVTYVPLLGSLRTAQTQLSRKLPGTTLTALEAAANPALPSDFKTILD

With `CC1=C(/C=C/C(C)=C\C=C\C(C)=C\C(=O)O)C(C)(C)CCC1` [9-cis retinoic acid], the “chemosensitivity (MTS assay)” value in experiment [1] is on record as “Comparable effects”.

For `CC1=C(/C=C/C(C)=C/C=C/C(C)=C/C(=O)O)C(C)(C)CCC1` [ATRA, all trans retinoic acid], the “chemosensitivity (MTS assay, absorbance at 490 nm)” value in experiment [1] (1 μM or 10 μM ATRA, absence of Rhodiola crenulata) is reported as “little difference in chemosensitivity”.

`CC1=C(/C=C/C(C)=C/C=C/C(C)=C/C(=O)Nc2ccc(O)cc2)C(C)(C)CCC1` [HPR, N-(4-hydroxyphenyl) retinamide]: in experiment [1], the “chemosensitivity (MTS assay)” value is “Comparable effects”.

With `CC/C(=C(\c1ccccc1)c1ccc(OCCN(C)C)cc1)c1ccccc1` [Tamoxifen, tamoxifen], the “percentage of cell death” value in experiment [2] (24 hours) and in experiment [2] (48 hours) was “increased the percentage of cell death” each time. For the same compound, the telomerase activity result in experiment [3] (24 hr) was “inhibited telomerase activity”; in experiment [3] (72 hr), “telomerase activity is starting to return”.

The values above are taken from patent US20080118589A1, “Pharmaceutical formulations of rhodiola crenulata and methods of use thereof” (priority 2005, published 2008).
